Paper PMC8698672, “Selective Anticancer and Antimicrobial Metallodrugs Based on Gold(III) Dithiocarbamate Complexes” (Biomedicines, 2021)

How the values were obtained:
[1] = n-octanol/water partition coefficient, shake-flask method; type: physicochemical; settings: n-octanol / buffered saline pH 7.4, shake-flask
Description: The n-octanol/water coefficient of the complexes was determined using the shake-flask method previously described. Buffered-saline distilled water (100 mL, phosphate buffer PO4^3− = 10 mM, (NaCl = 0.15 M, pH 7.4) and n-octanol (100 mL) were shaken together for 72 h to allow the saturation of both phases. Approximately 1 mg of the complexes was dissolved in 5 mL of the aqueous phase, and 5 mL of the organic phase was added, mixing for 10 min. The resulting emulsion was centrifuged to separate the phases. The concentration of the compounds in each phase was determined using UV−Vis absorbance spectroscopy. Log P7.4 was calculated as log (Absorganic/Absaqueous).
Biodistribution studies should be conducted to evaluate whether our complexes could reach their pharmacological target. The potential biodistribution of our complexes was evaluated by the measure of the partition coefficient. This parameter indicates how balanced the lipo- and hydrophilicity of the compounds are. Good equilibrium between these two properties is crucial for proper distribution inside the organism. The bloodstream is aqueous in nature, so hydrophilicity is needed for drug delivery, but too-high hydrophilicity can hinder the penetration of biological membranes. Of course, high lipophilicity behavior can hinder biomedical applications related to a good distribution profile. The chosen method to measure the partition coefficient (Log Pow) was the shake-flask technique, with ideal values in the range of −1 ≤ Log P ow ≤ 3. However, for a greater oral and intestinal absorption, a more restricted range has values around 1.35–1.80 [57]. Table 2 collects all of the obtained Log Pow values, and it can be seen that, although only complex [Au(ppy)(dedtc)]PF6 (C4) satisfied this restricted range, all of them presented acceptable values of Log Pow.

Caco-2/TC7 tumor cells = assay: MTT cell viability, tumor Caco-2/TC7 cells (5 days after seeding); type: cell-based, human; settings: for IC50: Caco-2/TC7, 5 days after seeding, 72 h incubation, MTT; for Tumor Cells Selectivity over Normal Cells: ratio of IC50 normal / tumor Caco-2/TC7 cells
Description: (§1) This study was conducted in the human enterocyte-like cell line Caco-2/TC7 [44]. This cell line undergoes a process of spontaneous differentiation in culture that leads to the formation of a monolayer of cells, expressing the morphological and functional characteristics of the mature enterocytes. This differentiation process is growth-dependent, where the cells undergo differentiation from “undifferentiated proliferative crypt-type cells” in the exponential phase of growth, to “differentiated enterocyte-type cells” in the stationary phase. The cell culture of Caco-2/TC7 cells (passages 30–50) was performed according to a previously reported method.
(§2) Cell survival was measured using the MTT test. The assay depends on the cellular reduction of 3-(4,5-dimethylthiazol-2-yl)-2,5-diphenyltetrazolium bromide (MTT, Sigma-Aldrich, Madrid, Spain) by the mitochondrial dehydrogenase of viable cells to a blue formazan product that can be measured spectrophotometrically, as previously described.
(§3) The in vitro cytotoxic effect was evaluated on human colon cancer cell line Caco-2/TC7. This particular cell line presents a huge advantage for toxicity studies because of its spontaneous enterocytic-like differentiation when confluence is reached. Therefore, Caco-2 cells become polarized cells expressing apical and basolateral surfaces with well-established tight junctions. Thus, cells present noncarcinogenic behavior in the confluence and the cytotoxic effect of our complexes can be performed on differentiated cells to evaluate the selectivity toward tumor cells. For the antiproliferative studies, MTT assay was performed after 72 h of exposure to different concentrations of the complexes at two different stages of confluence, five days to evaluate the effect on tumor cells (Figure S7) and 15 days for normal cells (Figure S8).

Caco-2/TC7 normal cells = assay: MTT cell viability, normal (differentiated) Caco-2/TC7 cells (15 days after seeding); type: cell-based, human; settings: Caco-2/TC7, 15 days after seeding, 72 h incubation
Description: as §1, §2, §3

Caco-2 cells = assay: Cell cycle analysis, PI staining flow cytometry; type: cell-based, human; settings: 20 μM, 24 h
Description: After incubation with the complexes, the cells were collected, washed twice with PBS, fixed in 70% ice-cold ethanol, and stored at 4 °C for 24 h. After centrifugation, cells were resuspended in PBS containing PI (50 μg/mL) and RNase A (100 μg/mL). After incubation for 30 min at RT in the dark, PI-stained cells were analyzed for DNA content in a Gallios Flow Cytometer (Beckman Coulter). […] Cell cycle distribution was determined on a linear scale. The percentage of cells in cycle phases was determined using the Kaluza Analysis Software (Beckman Coulter).
To stop the uncontrolled replication of tumor cells is still one of the main aims in the chemotherapy field; thus, arresting the tumor cell cycle in as many stages as possible is considered crucial. […] As is known, the geometry and structure of the complex have a great impact on the action mechanism of the drug, so there are examples of gold(III) complexes that alter the cell cycle at the G0/G1 phase, but also others at G2/M phase.
Figure 5 Cell population (%) in each stage of the cell cycle obtained by flow cytometry after 24 h of incubation of the cells with DMSO (control) and gold(III) complexes 1, 5, and 6 (20 μM).

[2] = system: Cryptococcus neoformans (Cn); assay: Antifungal MIC assay (CO-ADD); type: cell-based; settings: 36 h, 35 °C, inhibition ≥ 70%
Description: The antimicrobial assays were performed according to the protocols of the Community for Open Antimicrobial Drug Discovery (CO-ADD). […] All the sample preparation was done using liquid-handling robots.
The antifungal activity of all synthesized complexes was evaluated in two different fungi, Candida albicans (Ca) and Cryptococcus neoformans (Cn). Fungi strains were cultured for 3 days on yeast extract–peptone–dextrose (YPD) agar at 30 °C. A yeast suspension of 1 × 10^6 to 5 × 10^6 CFU/mL (as determined by OD530) was prepared from five colonies. The suspension was subsequently diluted and added to each well of the complex-containing plates, giving a final cell density of fungus suspension of 2.5 × 10^3 CFU/mL and a total volume of 50 μL. All plates were covered and incubated at 35 °C for 36 h without shaking. […] The absorbance was measured using a Biotek Multiflo Synergy HTX plate reader (Winooski, VT, USA). In both cases, the percentage of growth inhibition was calculated for each well, using the negative control (media only) and positive control (fungi without inhibitors) on the same plate. […] Due to a higher variance in growth and inhibition, a lower threshold was applied to the data for C. neoformans.

Row | Compound | Log Pow [1] | IC50 (Caco-2/TC7 tumor cells) [µM] | Tumor Cells Selectivity over Normal Cells (Caco-2/TC7 tumor cells) | IC50 (Caco-2/TC7 normal cells) [µM] | effect on cell cycle (cells in G0/G1, S, G2/M phases) vs control (Caco-2 cells) | MIC Cn [2] [µg/mL]
1 | Cc1ccc(-c2ccccn2)[c]([Au+][S]C(=S)N(C)C)c1.F[P-](F)(F)(F)(F)F [Complex C1, [Au(tpy)(dmdtc)] PF6] | 0.61 | 5.11 ± 0.12 | 4.5-fold | 23.03 ± 0.06 | did not have a significant impact | 32
2 | CN(C)C(=S)[S][Au+][c]1ccccc1-c1ccccn1.F[P-](F)(F)(F)(F)F [Complex C2, [Au(ppy)(dmdtc)]PF6] | 1.11 | 1.79 ± 0.12 | 8.8-fold | 15.69 ± 0.06 |  | 32
3 | CCN(CC)C(=S)[S][Au+][c]1cc(C)ccc1-c1ccccn1.F[P-](F)(F)(F)(F)F [Complex C3, [Au(tpy)(dedtc)]PF6] | 1.17 | 1.85 ± 0.36 | 7.0-fold | 12.95 ± 0.11 |  | 2
4 | Cc1ccc2[c](c1)[Au-]1([S]C(N(Cc3ccccc3)Cc3ccccc3)=[S+]1)[n+]1ccccc1-2.F[P-](F)(F)(F)(F)F (stereo not shown) [Complex C5, [Au(tpy)(dbdtc)]PF6] | 0.89 | 2.07 ± 0.11 |  | > 100 | did not have a significant impact | 32
5 | F[P-](F)(F)(F)(F)F.S=C([S][Au+][c]1ccccc1-c1ccccn1)N(Cc1ccccc1)Cc1ccccc1 [Complex C6, [Au(ppy)(dbdtc)]PF6] | 1.00 | 4.02 ± 0.3 | 6.2-fold | 24.7 ± 0.36 | did not have a significant impact | 
6 | [Au(ppy)(dedtc)]PF6 [Complex C4] | 1.57 | 2.47 ± 0.25 | 6.8-fold | 16.79 ± 0.13 |  | 32
